# Measurements from patent publication US12398120B2, “Substituted hydantoinamides as ADAMTS7 antagonists” (BAYER AKTIENGESELLSCHAFT, priority 2019, dated 2025).
# Target: ADAMTS4 (Homo sapiens (Human), UniProt O75173)
# Assay: Selectivity assay for ADAMTS-7 modulators: ADAMTS4 (FRET substrate)
# Format: biochemical
# Conditions: ADAMTS4 (R&D 4307-AD) 50 nM, substrate Dabcyl-EEVKAKVQPY-Glu(Edans)-NH2 1 μM, 120 min, 32° C.
# Procedure, shortened: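 Activity read as rising fluorescence after a FRET substrate is cleaved by human ADAMTS4, with reactions started by substrate addition to wells holding compound or DMSO. Percent inhibition plotted against concentration gave IC50.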
# Sequence of ADAMTS4 (O75173 213-685): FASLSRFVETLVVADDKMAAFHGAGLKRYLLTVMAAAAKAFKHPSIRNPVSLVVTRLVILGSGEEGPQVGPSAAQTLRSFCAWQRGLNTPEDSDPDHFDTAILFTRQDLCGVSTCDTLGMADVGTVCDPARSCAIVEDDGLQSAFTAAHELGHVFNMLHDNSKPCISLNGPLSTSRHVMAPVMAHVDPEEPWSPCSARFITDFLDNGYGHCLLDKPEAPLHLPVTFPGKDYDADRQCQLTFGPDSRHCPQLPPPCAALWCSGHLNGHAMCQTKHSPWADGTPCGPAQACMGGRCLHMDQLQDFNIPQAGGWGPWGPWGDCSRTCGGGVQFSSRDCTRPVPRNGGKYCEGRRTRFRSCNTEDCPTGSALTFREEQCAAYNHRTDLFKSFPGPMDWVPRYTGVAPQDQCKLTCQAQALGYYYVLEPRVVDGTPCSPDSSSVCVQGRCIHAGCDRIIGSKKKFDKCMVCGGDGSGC
row,IC50 [µM],SMILES
1,13,"Cc1nsnc1C1(CNC(=O)c2ccccc2-c2ccc(C(F)(F)F)cc2)NC(=O)NC1=O (stereo not drawn) [Example 85, Ent-N-{[4-(4-Methyl-1,2,5-Thiadiazol-3-Yl)-2,5-Dioxoimidazolidin-4-Yl]Methyl}-4′-(Trifluoromethyl)[Biphenyl]-2-Carboxamide]"
2,7.6,"Cc1nscc1C1(CNC(=O)c2ccccc2-c2ccc(C(F)(F)F)cc2)NC(=O)NC1=O (stereo not drawn) [Example 86, Ent-N-{[4-(3-Methyl-1,2-Thiazol-4-Yl)-2,5-Dioxoimidazolidin-4-Yl]Methyl}-4′-(Trifluoromethyl)[Biphenyl]-2-Carboxamide]"
3,6.9,"Cc1nn(C)cc1C1(CNC(=O)c2ccccc2-c2ccc(C(F)(F)F)cc2)NC(=O)NC1=O (stereo not drawn) [Example 87, Ent-N-{[4-(1,3-Dimethyl-1H-Pyrazol-4-Yl)-2,5-Dioxoimidazolidin-4-Yl]Methyl}-4′-(Trifluoromethyl)[Biphenyl]-2-Carboxamide]"
4,9.1,"Cc1cnoc1C1(CNC(=O)c2ccccc2-c2ccc(C(F)(F)F)cc2)NC(=O)NC1=O (stereo not drawn) [Example 88, Ent-N-{[4-(4-Methyl-1,2-Oxazol-5-Yl)-2,5-Dioxoimidazolidin-4-Yl]Methyl}-4′-(Trifluoromethyl)[Biphenyl]-2-Carboxamide]"
5,7.6,"O=C1NC(=O)[C@](CNC(=O)c2ccc(C(F)(F)F)cc2-c2ccc(Cl)cc2)(C2CC2)N1 [Example 89, 4′-Chloro-N-{[(4R)-4-Cyclopropyl-2,5-Dioxoimidazolidin-4-Yl]Methyl}-5-(Trifluoromethyl)[1,1′-Biphenyl]-2-Carboxamide]"
6,50,"O=C1NC(=O)[C@](CNC(=O)c2cccnc2-c2ccc(Cl)cc2)(C2CC2)N1 [Example 90, 2-(4-Chlorophenyl)-N-{[(4R)-4-Cyclopropyl-2,5-Dioxoimidazolidin-4-Yl]Methyl}Pyridine-3-Carboxamide]"
7,30,"Cc1nsnc1C1(CNC(=O)c2ccccc2-c2ccc(C(F)(F)F)nc2)NC(=O)NC1=O (stereo not drawn) [Example 91, Ent-N-{[4-(4-Methyl-1,2,5-Thiadiazol-3-Yl)-2,5-Dioxoimidazolidin-4-Yl]Methyl}-2-[6-(Trifluoromethyl)Pyridin-3-Yl]Benzamide]"
8,19,"O=C1NC(=O)[C@](CNC(=O)c2ccc(OC(F)(F)F)cc2-c2ccc(C(F)(F)F)cc2)(C2CC2)N1 [Example 92, N-{[(4R)-4-Cyclopropyl-2,5-Dioxoimidazolidin-4-Yl]Methyl}-5-(Trifluoromethoxy)-4′-(Trifluoromethyl)[1,1′-Biphenyl]-2-Carboxamide]"
9,3.4,"O=C1NC(=O)[C@](CNC(=O)c2ccc(Cl)c(F)c2-c2ccc(C(F)(F)F)cc2)(C2CC2)N1 [Example 93, 5-Chloro-N-{[(4R)-4-Cyclopropyl-2,5-Dioxoimidazolidin-4-Yl]Methyl}-6-Fluoro-4′-(Trifluoromethyl)[1,1′-Biphenyl]-2-Carboxamide]"
10,46,"CC1(CNC(=O)c2ccccc2-c2ccc(C(F)(F)F)cc2)NC(=O)NC1=O (stereo not drawn) [Example 96, Ent-N-[(4-Methyl-2,5-Dioxoimidazolidin-4-Yl)Methyl]-4′-(Trifluoromethyl)[Biphenyl]-2-Carboxamide]"
11,4.5,"Cc1ccc(-c2cc(C(F)(F)F)ccc2C(=O)NC[C@@]2(C3CC3)NC(=O)NC2=O)cc1 [Example 99, N-{[(4R)-4-Cyclopropyl-2,5-Dioxoimidazolidin-4-Yl]Methyl}-4′-Methyl-5-(Trifluoromethyl)[Biphenyl]-2-Carboxamide]"
12,3.2,"Cc1ccc(-c2c(C)cccc2C(=O)NC[C@@]2(C3CC3)NC(=O)NC2=O)cc1 [Example 101, N-{[(4R)-4-Cyclopropyl-2,5-Dioxoimidazolidin-4-Yl]Methyl}-4′,6-Dimethyl[Biphenyl]-2-Carboxamide]"
13,6.6,"CCC(F)(F)c1ccc(-c2ccccc2C(=O)NC[C@@]2(C3CC3)NC(=O)NC2=O)cc1 [Example 102, N-{[(4R)-4-Cyclopropyl-2,5-Dioxoimidazolidin-4-Yl]Methyl}-4′-(1,1-Difluoropropyl)[Biphenyl]-2-Carboxamide]"

# Further lines, the compound ahead of its results:
row,SMILES,IC50 [µM]
1,"CC(C)(C)C1(CNC(=O)c2ccccc2-c2ccc(C(F)(F)F)cc2)NC(=O)NC1=O (stereo not drawn) [Example 71, Ent-N-[(4-Tert-Butyl-2,5-Dioxoimidazolidin-4-Yl)Methyl]-4′-(Trifluoromethyl)[Biphenyl]-2-Carboxamide]",16.3
2,"Cc1cn(C)nc1C1(CNC(=O)c2ccccc2-c2ccc(C(F)(F)F)nc2)NC(=O)NC1=O (stereo not drawn) [Example 72, Ent-N-{[4-(1,4-Dimethyl-1H-Pyrazol-3-Yl)-2,5-Dioxoimidazolidin-4-Yl]Methyl}-2-[6-(Trifluoromethyl)Pyridin-3-Yl]Benzamide]",6.9
3,"Cc1nonc1C1(CNC(=O)c2ccccc2-c2ccc(C(F)(F)F)cc2)NC(=O)NC1=O (stereo not drawn) [Example 73, Ent-N-{[4-(4-Methyl-1,2,5-Oxadiazol-3-Yl)-2,5-Dioxoimidazolidin-4-Yl]Methyl}-4′-(Trifluoromethyl)[Biphenyl]-2-Carboxamide]",20
4,"Cc1nc(C)c(C2(CNC(=O)c3ccccc3-c3ccc(C(F)(F)F)nc3)NC(=O)NC2=O)s1 (stereo not drawn) [Example 74, Ent-N-{[4-(2,4-Dimethyl-1,3-Thiazol-5-Yl)-2,5-Dioxoimidazolidin-4-Yl]Methyl}-2-[6-(Trifluoromethyl)Pyridin-3-Yl]Benzamide]",5.2
5,"O=C1NC(=O)[C@](CNC(=O)c2ccc(Cl)cc2-c2ccc(C(F)(F)F)nc2)(C2CC2)N1 [Example 75, 4-Chloro-N-{[(4R)-4-Cyclopropyl-2,5-Dioxoimidazolidin-4-Yl]Methyl}-2-[6-(Trifluoromethyl)Pyridin-3-Yl]Benzamide]",10
6,"O=C1NC(=O)[C@](CNC(=O)c2ccc(F)c(F)c2-c2ccc(C(F)(F)F)nc2)(C2CC2)N1 [Example 76, N-{[(4R)-4-Cyclopropyl-2,5-Dioxoimidazolidin-4-Yl]Methyl}-3,4-Difluoro-2-[6-(Trifluoromethyl)Pyridin-3-Yl]Benzamide]",14
7,"Cc1cnoc1C1(CNC(=O)c2ccccc2-c2ccc(C(F)(F)F)nc2)NC(=O)NC1=O (stereo not drawn) [Example 78, Ent-N-{[4-(4-Methyl-1,2-Oxazol-5-Yl)-2,5-Dioxoimidazolidin-4-Yl]Methyl}-2-[6-(Trifluoromethyl)Pyridin-3-Yl]Benzamide]",14
8,"CCn1nccc1C1(CNC(=O)c2ccccc2-c2ccc(C(F)(F)F)cc2)NC(=O)NC1=O (stereo not drawn) [Example 80, Ent-N-{[4-(1-Ethyl-1H-Pyrazol-5-Yl)-2,5-Dioxoimidazolidin-4-Yl]Methyl}-4′-(Trifluoromethyl)[Biphenyl]-2-Carboxamide]",5.73
9,"O=C1NC(=O)[C@](CNC(=O)c2cccnc2-c2ccc(C(F)(F)F)cc2)(C2CC2)N1 [Example 82, N-{[(4R)-4-Cyclopropyl-2,5-Dioxoimidazolidin-4-Yl]Methyl}-2-[4-(Trifluoromethyl)Phenyl]Pyridine-3-Carboxamide]",> 50
10,"O=C1NC(=O)[C@](CNC(=O)c2ccncc2-c2ccc(C(F)(F)F)cc2)(C2CC2)N1 [Example 83, N-{[(4R)-4-Cyclopropyl-2,5-Dioxoimidazolidin-4-Yl]Methyl}-3-[4-(Trifluoromethyl)Phenyl]Pyridine-4-Carboxamide]",36
11,"O=C1NC(=O)[C@](CNC(=O)c2ccccc2-c2ccc(C(F)(F)F)cn2)(C2CC2)N1 [Example 84, N-{[(4R)-4-Cyclopropyl-2,5-Dioxoimidazolidin-4-Yl]Methyl}-2-[5-(Trifluoromethyl)Pyridin-2-Yl]Benzamide]",50
